The source of these data is US20130012451A1, “COMPOSITIONS AND METHODS FOR INHIBITING MMP-9-MEDIATED CELL MIGRATION” (The Research Foundation of State University of New York, priority 2009, published 2013).

“Also recorded” adds a separate entry of the source. Where two headings read alike, the source gives them in different places. Where no end group is shown, it is not given here.

For assay [1], the target named is T1, CD44/MMP-9 heterodimer (Homo sapiens, UniProt P16070).
T1 construct: The MMP-9 cDNA containing the open reading frame of MMP-9 was amplified by a PCR approach; expressed in transfected cells; host or cells: COS-1 monkey kidney epithelial cells
Briefly: Co-immunoprecipitation assay of CD44/MMP-9 complex formation in transfected COS-1 cells. Format: cell-based. The settings on record: COS-1 cells transfected with CD44 and MMP-9 cDNAs, peptides for 30 minutes. From the text: (§1) Procedures for Gelatin Substrate Zymography, Immunoblotting, Immunoprecipitation, Transwell Chamber Cell Migration and Phagokinetic Cell Migration Assays
(§2) Basic protocols for these techniques have been described previously (Cao et al., 1996; Dufour et al., 2008).
To further examine the importance of cross-talk between CD44 and MMP-9 in cell migration, an 8-amino acids peptide (SRPQGPFL) (SEQ ID NO: 2) was synthesized to mimic the outermost β-strand of the first blade of the MMP-9 PEX domain (IS4 peptide). As a control, a scrambled peptide with the same amino acids but rearranged in different order (GLSQPRFP) (SEQ ID NO: 35) was synthesized. COS-1 cells transfected with CD44 and MMP-9 cDNAs were treated with IS4 and IS4 scrambled peptides for 30 minutes followed by monitoring complex formations between CD44 and MMP-9 using a co-immunoprecipitation assay.

Assay [2] relates to HT1080 cells. Nature of the assay: Transwell chamber migration assay, HT1080 cells expressing endogenous MMP-9. Format: cell-based, human. The settings on record: 100 μM peptide, 6 h at 37° C. Here is the method:
Human fibrosarcoma HT1080 cells are highly invasive and metastatic. […] Since this cell line produces endogenous MMP-9, the inventors sought to test if the MMP-9 IS4 and IVS4 peptides can be used to interfere with function of endogenous MMP-9. To this end, HT1080 cells were employed and cell migratory ability was evaluated using a Transwell chamber migration assay (FIG. 11). The cells were incubated with 100 μM of IS4 peptide (SRPQGPFL) (SEQ ID NO: 2), IS4 scrambled peptide (GLSQPRFP) (SEQ ID NO: 35), IVS4 peptide (NQVDQVGY) (SEQ ID NO: 1), IVS4 scrambled peptide (VQYDNGQV) (SEQ ID NO: 51), and a combination of IS4 and IVS4 peptides for 6 h at 37° C. 1% DMSO was used as a vehicle control. Migrated cells were microscopically counted. Each data point was performed in triplicate and the experiment was repeated three times (*P<0.05). […] While not limiting the invention to any particular mechanism, it is the inventors' view that this is potentially because both inhibitory peptides target the same molecule.

For assay [3], the system named is MMP-9-induced cell migration of transfected COS-1 cells. The note with it: for MMP-9-induced cell migration: transwell chamber migration assay for 6 hours, MMP-9 transfected COS-1 cells.
Procedure: (P-values reflect comparison with MMP-9 transfected cells: *P<0.05). […] COS-1 cells transfected with an empty vector or MMP-9 cDNAs were examined by a transwell chamber migration assay for 6 hours in the presence of DMSO control, specific and scramble peptides at different concentration. Each data point was performed in triplicate and the experiments was repeated three times (*P<0.05).
Transfection of plasmid DNA in COS-1 cells was achieved using polyethylenimine (Polysciences) or Transfectin™ reagents (Bio-Rad) and the transfected cells were incubated for 48 h at 37° C. followed by biochemical and biological assays.
Assay [4] has as its system cell migration induced by MT1-MMP. Briefly: Transwell migration assay, cell migration induced by MT1-MMP. Format: cell-based. The source says:
(§3) One approach to blunt MMP-9 induced cell migration might be to target the herein discovered homodimer formation, which is a prerequisite for MMP-9-induced cell migration. Given the observation that the outermost β-strand of the fourth blade of the MMP-9 PEX domain is required for MMP-9 homodimerization formation, an 8-amino acids peptide (NQVDQVGY) (SEQ ID NO: 1) was synthesized to mimic the outer β-strand of blade IV of MMP-9 PEX domain (IVS4 peptide). As a control, a scrambled peptide with the same amino acids but rearranged in different order (VQYDNGQV) (SEQ ID NO: 51) was designed and synthesized. To test if IVS4 peptide blocked MMP-9 homodimer formation, COS-1 cells transfected with MMP-9 cDNA were treated with peptides for 30 minutes followed by a co-immunoprecipitation assay. […] To examine the potential therapeutic effect of this peptide, a transwell migration assay was performed. […] This IVS4 peptide, however, had no effect on cell migration induced by MT1-MMP, an integral membrane matrix metalloproteinase capable of stimulating cell migration (Cao et al., 2004).

For assay [5], the target named is T2, MMP-9 homodimer (Homo sapiens, UniProt P14780).
T2 construct: The MMP-9 cDNA containing the open reading frame of MMP-9 was amplified by a PCR approach; by a site-directed mutagenesis approach using wild type MMP-9 as a template; expressed in transfected cells; host or cells: COS-1 monkey kidney epithelial cells
Nature of the assay: Co-immunoprecipitation assay of MMP-9 homodimer formation in transfected COS-1 cells. The format is cell-based.
Text: as §1, §2
COS-1 cells co-transfected with HA- and Myc-tagged MMP-9 cDNAs were then employed to examine homodimer formation using a co-immunoprecipitation approach. The HA-tagged MMP-9 proteins in the conditioned medium of transfected COS-1 cells were immunoprecipitated with anti-HA antibodies followed by a western blotting probed by anti-Myc antibodies. […] To further confirm this observation, the reciprocal co-immunoprecipitation was performed. Anti-Myc antibodies were employed to precipitate Myc-tagged MMP-9 complexes in the conditioned medium of co-transfected COS-1 cells followed by western blotting using anti-HA antibodies. This reciprocal approach confirms that MMP-9 does form a homodimer in the condition medium of transfected COS-1 cells.
as §3

Assay [6] relates to MMP9/PEXMMP-2/Myc transfected COS-1 cells. Nature of the assay: Transwell migration assay, COS-1 cells transfected with MMP9/PEXMMP-2/Myc. The settings on record: co-expression of TIMP. Format: cell-based, monkey. From the text: FIG. 3. TIMP-1 interferes with MMP-9 homodimerization. (A) TIMP-1, but not TIMP-2 interferes with MMP-9 dimerization in transfected COS-1 cells examined by a co-immunoprecipitation assay for conditioned medium and cell lysates (upper and middle panels), and immunoblotting for α/β tubulin (lower panel, loading control). (B) TIMP-1 co-precipitated with MMP-9 in both the lysate and the conditioned medium of transfected COS-1 cells examined by a co-immunoprecipitation assay. (C) MMP-9 chimera substituting the PEX domain with the corresponding MMP-2 interacts with TIMP-2 in transfected COS-1 cells, but not wild type MMP-9. (D) COS-1 cells transfected with corresponding cDNAs were subjected to a transwell migration assay. Three triplicated repeats were performed for each transfection. *P<0.05.
The role of TIMP-1 in interfering with MMP-9 homodimer formation remains controversial (Goldberg et al., 1992; Olson et al., 2000). This discrepancy led us to reevaluate the specific interference of TIMP-1 on proMMP-9 homodimer formation using the biochemical approach described above. […]

T2 sequence (P14780 20-707 limits assumed): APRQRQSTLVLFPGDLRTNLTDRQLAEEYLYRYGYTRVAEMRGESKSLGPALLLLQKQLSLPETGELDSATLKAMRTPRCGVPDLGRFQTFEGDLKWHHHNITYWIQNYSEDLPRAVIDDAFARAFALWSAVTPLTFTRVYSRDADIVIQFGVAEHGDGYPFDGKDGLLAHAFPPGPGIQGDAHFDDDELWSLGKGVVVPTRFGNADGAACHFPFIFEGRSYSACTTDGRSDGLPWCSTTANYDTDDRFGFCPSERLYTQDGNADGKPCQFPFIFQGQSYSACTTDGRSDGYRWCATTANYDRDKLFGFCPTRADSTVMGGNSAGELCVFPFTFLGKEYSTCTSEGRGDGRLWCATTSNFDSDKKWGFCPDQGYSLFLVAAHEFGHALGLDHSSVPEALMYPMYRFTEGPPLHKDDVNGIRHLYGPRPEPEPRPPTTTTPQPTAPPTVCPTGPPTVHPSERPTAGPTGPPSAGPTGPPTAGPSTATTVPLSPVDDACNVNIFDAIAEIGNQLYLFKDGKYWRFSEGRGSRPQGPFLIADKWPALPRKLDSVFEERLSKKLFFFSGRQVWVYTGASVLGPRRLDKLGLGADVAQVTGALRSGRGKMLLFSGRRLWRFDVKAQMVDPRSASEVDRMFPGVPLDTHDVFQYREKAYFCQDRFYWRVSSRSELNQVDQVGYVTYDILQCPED
T1 sequence (P16070 21-742, one chain of several): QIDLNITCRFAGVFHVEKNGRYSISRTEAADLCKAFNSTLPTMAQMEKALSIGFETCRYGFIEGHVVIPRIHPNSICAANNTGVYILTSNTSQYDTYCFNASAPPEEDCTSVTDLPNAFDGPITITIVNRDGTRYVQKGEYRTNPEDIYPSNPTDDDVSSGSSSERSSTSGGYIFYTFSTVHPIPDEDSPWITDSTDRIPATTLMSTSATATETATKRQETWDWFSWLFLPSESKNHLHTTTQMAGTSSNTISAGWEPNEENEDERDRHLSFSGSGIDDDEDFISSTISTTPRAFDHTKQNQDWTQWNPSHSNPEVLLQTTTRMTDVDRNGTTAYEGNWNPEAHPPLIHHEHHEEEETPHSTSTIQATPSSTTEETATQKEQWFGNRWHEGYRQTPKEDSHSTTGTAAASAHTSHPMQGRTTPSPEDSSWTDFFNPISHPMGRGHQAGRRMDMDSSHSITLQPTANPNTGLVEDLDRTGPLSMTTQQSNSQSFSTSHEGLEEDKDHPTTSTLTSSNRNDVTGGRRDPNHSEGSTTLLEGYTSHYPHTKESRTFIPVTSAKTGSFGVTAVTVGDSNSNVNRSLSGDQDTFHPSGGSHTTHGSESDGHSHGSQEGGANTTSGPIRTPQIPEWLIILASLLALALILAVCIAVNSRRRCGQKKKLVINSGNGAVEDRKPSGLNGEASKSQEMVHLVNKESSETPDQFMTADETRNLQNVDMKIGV

Consider “GLSQPRFP [IS4 scrambled peptide, control scrambled peptide with the same amino acids as IS4 rearranged in different order, reference compound]”, for which, in assay [1], the CD44/MMP-9 heterodimer formation entry is given as “minimal effect”.
As to NQVDQVGY [IVS4 peptide, NQVDQVGY], the HT1080 cell migration result in assay [2] is given as “significantly reduced; also recorded: efficiently reduced”. For the same substance, 50 µM corresponded to half-maximal inhibition in assay [3] (IC50). The MMP-9-induced cell migration result in assay [3] is listed as “inhibited MMP-9-induced cell migration in a dose-dependent manner”; in assay [3] (listed as IVS4), “efficiently reduced”; in assay [3] (listed as IVS4 peptides), “Dose dependent inhibition”. In addition, the “cell migration induced by MT1-MMP” value in assay [4] was “no effect”. Also, the MMP-9 homodimer formation entry in assay [5] (COS-1 cells transfected with MMP-9 cDNA, treated with peptides for 30 minutes, co-immunoprecipitation) is recorded as “efficiently blocked”; in assay [5] (COS-1 cells transfected with MMP-9 cDNA, treated with peptides for 30 minutes, co-immunoprecipitation, listed as IVS4), “abrogates”.
On to SRPQGPFL [IS4 peptide, SRPQGPFL], for which, in assay [2] (listed as IS4), the HT1080 cell migration result is “significantly reduced; also recorded: efficiently reduced”. The midpoint of inhibition in assay [3], the IC50, lay at 12 µM. Besides, the MMP-9-induced cell migration result in assay [3] is recorded as “dose-dependent inhibition”; in assay [3] (listed as IS4), “efficiently reduced”; in assay [3] (listed as IS4 peptides) it was “Dose-dependent inhibition”. Moreover, the CD44/MMP-9 heterodimer formation entry in assay [1] is given as “interferes”.
With “TIMP-1: tissue inhibitor of metalloproteinases, co-expressed from cDNA in COS-1 cells”, the “MMP9/PEXMMP-2/Myc enhancement of COS-1 cell migration” value in assay [6] is given as “no apparent effect; also recorded: did not significantly inhibit”. In assay [5] (co-expression of TIMP cDNA with proMMP-9/Myc and proMMP-9/HA cDNAs in COS-1 cells, conditioned media and cell lysate), the MMP-9 homodimer formation result is listed as “interferes; also recorded: blocking”.
